# Assay results: article PMC3142157, “Sensitive and Specific Fluorescent Probes for Functional Analysis of the Three Major Types of Mammalian ABC Transporters” (PLoS ONE, 2011)
# Legend:
# CHO K1 cells = test: Dye uptake flow cytometry MDR assay (MAF / D-values), CHO K1 cells; type: cell-based, hamster; conditions: for D-values Post Inhibitor Treatment (compared to uninhibited cells), CsA / D-values Post Inhibitor Treatment (compared to uninhibited cells), FTC / D-values Post Inhibitor Treatment (compared to uninhibited cells), MK-571 / D-values Post Inhibitor Treatment (compared to uninhibited cells), Verapamil: CHO K1; for MAF value, Fumitremorgin C / MAF value, Probenecid / MAF value, Verapamil: CHO K1 cells, dye uptake protocol; for MAF value, Fumitremorgin C: probe with vs without fumitremorgin C; for MAF value, Probenecid: probe with vs without probenecid; for MAF value, Verapamil: probe with vs without verapamil
# Experimental: (§1) Detailed protocol for the MDR assay is available in the Instruction Manual for eFluxx-ID® Green or Gold Multi-Drug Resistance Assay Kit (ENZO Life Sciences, Inc., Farmingdale, NY). Briefly, on the day of the assay, cells were collected, washed with PBS and incubated with or without MDR inhibitors in the presence of the eFluxx-ID® Green or Gold probes for 30 min at 37°C and analyzed immediately by flow cytometry. eFluxx-ID® Green or Gold probes are novel xanthene-based small molecule dyes developed for the detection of MDR activity in living cells. In order to exclude dead cells in the analyses, propidium iodide (PI) or 7-actinaminomycin D (7-AAD) solution was added to the cells during the last 5 min of incubation in some experiments.
# (§2) To develop a minimal step assay procedure for the dye uptake protocol, three modifications of the protocol were investigated. One set of the cells was treated according to a general “no-wash” protocol (see Instruction Manual for the kit). In the second set of tubes, the reaction was stopped by rapid centrifugation (1 min) at relatively low speed (200×g). After washing with ice-cold PBS and discarding the supernatant, cells were re-suspended in 0.5 ml of ice-cold medium and kept on ice until flow cytometry analysis was performed. The third set of cells was simply spun down (1 min, 200×g) to remove the excess probe, resuspended in ice-cold medium and kept on ice until flow cytometry analysis was performed. eFluxx-ID® Green dye (ex/em 490/514 nm) fluorescence intensity was measured in the FL1/FITC (530/30 filter) channel, and eFluxx-ID® Gold dye (ex/em 530/555 nm) fluorescence intensity was monitored in the FL2/PE (585/42 filter) channel.
# (§3) Experiments were performed using a FACS Calibur benchtop flow cytometer (BD Biosciences, San Jose, CA) equipped with a blue (488 nm) laser, and the signals were registered in the FITC (530/30 filter), PE (585/42 filter) and PerCP (670 LP filter) channels. eFluxx-ID® Green dye fluorescence was measured in the FL1/FITC channel, and eFluxx-ID® Gold dye fluorescence, in the FL2/PE channel. Data analysis was performed using FlowJo 8.8.2 software (Tree Star, Inc., Ashland, OR).
# (§4) All of the experiments were performed at least three times. Results were expressed as mean ± S.E. Statistical comparisons were made using an unpaired two-tailed Student's t-test. A P value of <0.05 was considered significant. Flow cytometry data were analyzed by comparison of median fluorescence, by using Kolmogorov-Smirnov statistics (D-value) or by calculating MDR Activity Factor (MAF) values using the following formula: MAF = 100*((MFIinh−MFI0)/MFIinh), wherein MFIinh and MFI0 are the mean fluorescence intensity values measured in the presence and absence of inhibitor [7].
# A549 cells = test: Dye uptake flow cytometry MDR assay (MAF / D-values), A549 cells; type: cell-based, human; conditions: dye uptake protocol; for MAF value, Fumitremorgin C: probe with vs without fumitremorgin C; for MAF value, Probenecid: probe with vs without probenecid; for MAF value, Verapamil: probe with vs without verapamil
# Experimental: as §1, §2, §3, §4
# HeLa cells = test: Dye uptake flow cytometry MDR assay (MAF), HeLa cells; type: cell-based, human; conditions: dye uptake protocol; for MAF value, Fumitremorgin C: probe with vs without fumitremorgin C; for MAF value, Probenecid: probe with vs without probenecid; for MAF value, Verapamil: probe with vs without verapamil
# Experimental: as §1, §2, §3, §4
# HL-60 cells = test: Dye uptake flow cytometry MDR assay (MAF), HL-60 cells; type: cell-based, human; conditions: for MAF value, CsA: probe with vs without CsA; for MAF value, CsA / MAF value, Nov / MAF value, Ver: mean ± SEM; for MAF value, MK571: probe with vs without MK571, mean ± SEM; for MAF value, Nov: probe with vs without Nov; for MAF value, Ver: probe with vs without Ver
# Experimental: (§5) Detailed protocol for the MDR assay is available in the Instruction Manual for eFluxx-ID® Green or Gold Multi-Drug Resistance Assay Kit (ENZO Life Sciences, Inc., Farmingdale, NY). […] In order to exclude dead cells in the analyses, propidium iodide (PI) or 7-actinaminomycin D (7-AAD) solution was added to the cells during the last 5 min of incubation in some experiments. Experiments were performed using a FACS Calibur benchtop flow cytometer (BD Biosciences, San Jose, CA) equipped with a blue (488 nm) laser, and the signals were registered in the FITC (530/30 filter), PE (585/42 filter) and PerCP (670 LP filter) channels. eFluxx-ID® Green dye fluorescence was measured in the FL1/FITC channel, and eFluxx-ID® Gold dye fluorescence, in the FL2/PE channel. Data analysis was performed using FlowJo 8.8.2 software (Tree Star, Inc., Ashland, OR). All of the experiments were performed at least three times. Results were expressed as mean ± S.E. Statistical comparisons were made using an unpaired two-tailed Student's t-test. […] Additionally, HCT-8 cell line reported to overexpress both MDR1 and MRP transporters, [21] was tested. HCT-8, HCT-15, HepG2, HL-60 and HL-60/MX1 cells were grown on tissue culture dishes and on the day of assay were incubated with eFluxx-ID® Green and Gold probes with and without inhibitors according to the described dye uptake protocol (Materials and Methods) and analyzed by flow cytometry.
# HL-60/MX1 cells = test: Dye uptake flow cytometry MDR assay (MAF), HL-60/MX1 cells; type: cell-based, human; conditions: for MAF value, CsA: probe with vs without CsA; for MAF value, CsA / MAF value, Nov / MAF value, Ver: mean ± SEM; for MAF value, MK571: probe with vs without MK571, mean ± SEM; for MAF value, Nov: probe with vs without Nov; for MAF value, Ver: probe with vs without Ver
# Experimental: as §5
# HCT-15 cells = test: Dye uptake flow cytometry MDR assay (MAF), HCT-15 cells; type: cell-based, human; conditions: for MAF value, CsA: probe with vs without CsA; for MAF value, CsA / MAF value, Nov / MAF value, Ver: mean ± SEM; for MAF value, MK571: probe with vs without MK571, mean ± SEM; for MAF value, Nov: probe with vs without Nov; for MAF value, Ver: probe with vs without Ver
# Experimental: as §5
# HCT-8 cells = test: Dye uptake flow cytometry MDR assay (MAF), HCT-8 cells; type: cell-based, human; conditions: for MAF value, CsA: probe with vs without CsA; for MAF value, CsA / MAF value, Nov / MAF value, Ver: mean ± SEM; for MAF value, MK571: probe with vs without MK571, mean ± SEM; for MAF value, Nov: probe with vs without Nov; for MAF value, Ver: probe with vs without Ver
# Experimental: as §5
# HepG2 cells = test: Dye uptake flow cytometry MDR assay (MAF), HepG2 cells; type: cell-based, human; conditions: for MAF value, CsA: probe with vs without CsA; for MAF value, CsA / MAF value, Nov / MAF value, Ver: mean ± SEM; for MAF value, MK571: probe with vs without MK571, mean ± SEM; for MAF value, Nov: probe with vs without Nov; for MAF value, Ver: probe with vs without Ver
# Experimental: as §5
# [1] = dual probe treatment eFluxx-ID Gold + Pheophorbide A
# [2] = dual probe treatment eFluxx-ID Green + Pheophorbide A
# [3] = triple probe treatment CMFDA + eFluxx-ID Gold + Pheophorbide A
# [4] = triple probe treatment DiOC2(3) + eFluxx-ID Gold + Pheophorbide A
# [5] = dual probe treatment eFluxx-ID Gold + DiOC2(3)
# [6] = dual probe treatment eFluxx-ID Gold + CMFDA
Molecule,"D-values Post Inhibitor Treatment (compared to uninhibited cells), CsA (CHO K1 cells; [3])","D-values Post Inhibitor Treatment (compared to uninhibited cells), FTC (CHO K1 cells; [3])","D-values Post Inhibitor Treatment (compared to uninhibited cells), MK-571 (CHO K1 cells; [3])","D-values Post Inhibitor Treatment (compared to uninhibited cells), Verapamil (CHO K1 cells; [3])","D-values Post Inhibitor Treatment (compared to uninhibited cells), CsA (CHO K1 cells; [4])","D-values Post Inhibitor Treatment (compared to uninhibited cells), FTC (CHO K1 cells; [4])","D-values Post Inhibitor Treatment (compared to uninhibited cells), MK-571 (CHO K1 cells; [4])","MAF value, Fumitremorgin C (CHO K1 cells)","MAF value, Probenecid (CHO K1 cells)","MAF value, Verapamil (CHO K1 cells)","MAF value, Fumitremorgin C (A549 cells)","MAF value, Probenecid (A549 cells)","MAF value, Verapamil (A549 cells)","MAF value, Fumitremorgin C (HeLa cells)","MAF value, Probenecid (HeLa cells)","MAF value, Verapamil (HeLa cells)","MAF value, CsA (HCT-8 cells)","MAF value, MK571 (HCT-8 cells)","MAF value, Nov (HCT-8 cells)","MAF value, Ver (HCT-8 cells)",further results
"C=Cc1c(C)c2cc3nc(c4c5[nH]c(cc6nc(cc1[nH]2)C(C)=C6CC)c(C)c5C(=O)[C@@H]4C(=O)OC)[C@@H](CCC(=O)O)[C@@H]3C [Pheophorbide A, pheophorbide A]",0.20,0.27,0.09,0.18,0.4,0.41,0.13,22.3,8.4,0.7,36.0,14.2,4.0,5.8,0.5,0,,,,,"D-values Post Inhibitor Treatment (compared to uninhibited cells), CsA (CHO K1 cells; [1]): 0.25; D-values Post Inhibitor Treatment (compared to uninhibited cells), FTC (CHO K1 cells; [1]): 0.34; D-values Post Inhibitor Treatment (compared to uninhibited cells), MK-571 (CHO K1 cells; [1]): 0.14; D-values Post Inhibitor Treatment (compared to uninhibited cells), Verapamil (CHO K1 cells; [1]): 0.11; D-values Post Inhibitor Treatment (compared to uninhibited cells), CsA (CHO K1 cells; [2]): 0.25; D-values Post Inhibitor Treatment (compared to uninhibited cells), FTC (CHO K1 cells; [2]): 0.33; D-values Post Inhibitor Treatment (compared to uninhibited cells), MK-571 (CHO K1 cells; [2]): 0.15; D-values Post Inhibitor Treatment (compared to uninhibited cells), Verapamil (CHO K1 cells; [2]): 0.14; D-values Post Inhibitor Treatment (compared to uninhibited cells), Verapamil (CHO K1 cells; [4]): 0.17; MAF value, CsA (HL-60 cells): 6.5±1.7; MAF value, MK571 (HL-60 cells): 7.6±1.6; MAF value, Nov (HL-60 cells): 8.5±1.4; MAF value, Ver (HL-60 cells): 6.8±0.6; MAF value, CsA (HL-60/MX1 cells): 22.5±3.0; MAF value, MK571 (HL-60/MX1 cells): 10.2±3.7; MAF value, Nov (HL-60/MX1 cells): 23.4±0.8; MAF value, Ver (HL-60/MX1 cells): 7.6±3.8"
"CCN1C(=CC=Cc2oc3ccccc3[n+]2CC)Oc2ccccc21.[I-] [DiOC2(3), 3,3′-diethyloxacarbocyanine iodide]",,,,,0.98,0.11,0.13,0,2.4,86.6,0.9,1.0,4.2,0,0,0,24.7±0.9,9.8±1.2,0,19.1±3.7,"D-values Post Inhibitor Treatment (compared to uninhibited cells), CsA (CHO K1 cells; [5]): 0.94; D-values Post Inhibitor Treatment (compared to uninhibited cells), FTC (CHO K1 cells; [5]): 0.16; D-values Post Inhibitor Treatment (compared to uninhibited cells), MK-571 (CHO K1 cells; [5]): 0.13; D-values Post Inhibitor Treatment (compared to uninhibited cells), Verapamil (CHO K1 cells; [5]): 0.96; D-values Post Inhibitor Treatment (compared to uninhibited cells), Verapamil (CHO K1 cells; [4]): 0.98; MAF value, CsA (HCT-15 cells): 71.0±5.0; MAF value, MK571 (HCT-15 cells): 4.3±2.2; MAF value, Nov (HCT-15 cells): 0; MAF value, Ver (HCT-15 cells): 69.3±4.3"
Calcein AM,,,,,,,,6.4,55.3,63.9,1.3,19.5,28.0,0.2,12.2,13.0,46.5±5.1,31.1±4.7,7.1±0.4,25.9±0.9,"MAF value, CsA (HCT-15 cells): 67.2±2.0; MAF value, MK571 (HCT-15 cells): 13.5±2.9; MAF value, Nov (HCT-15 cells): 4.3±2.2; MAF value, Ver (HCT-15 cells): 62.9±2.6; MAF value, CsA (HepG2 cells): 59.0±2.4; MAF value, MK571 (HepG2 cells): 40.7±4.5; MAF value, Nov (HepG2 cells): 3.0±0.1; MAF value, Ver (HepG2 cells): 22.0±2.9; MAF value, CsA (HL-60 cells): 15.2±2.5; MAF value, MK571 (HL-60 cells): 8.0±1.7; MAF value, Nov (HL-60 cells): 8.6±1.5; MAF value, Ver (HL-60 cells): 2.5±1.1; MAF value, CsA (HL-60/MX1 cells): 18.2±2.7; MAF value, MK571 (HL-60/MX1 cells): 10.8±1.8; MAF value, Nov (HL-60/MX1 cells): 5.9±1.2; MAF value, Ver (HL-60/MX1 cells): 1.6±0.3"
"CC(=O)Oc1ccc2c(c1)Oc1cc(OC(C)=O)ccc1C21OC(=O)c2cc(CCl)ccc21 [CMFDA, chloromethylfluorescein diacetate]",0.47,0.14,0.89,0.10,,,,0,56.9,34.3,20.7,27.1,16.6,11.4,9.0,7.6,43.0±3.2,39.2±3.6,0,21.2±3.2,"D-values Post Inhibitor Treatment (compared to uninhibited cells), CsA (CHO K1 cells; [6]): 0.49; D-values Post Inhibitor Treatment (compared to uninhibited cells), FTC (CHO K1 cells; [6]): 0.06; D-values Post Inhibitor Treatment (compared to uninhibited cells), MK-571 (CHO K1 cells; [6]): 0.91; D-values Post Inhibitor Treatment (compared to uninhibited cells), Verapamil (CHO K1 cells; [6]): 0.1; MAF value, CsA (HepG2 cells): 50.4±1.3; MAF value, MK571 (HepG2 cells): 52.2±3.8; MAF value, Nov (HepG2 cells): 7.0±1.7; MAF value, Ver (HepG2 cells): 12.8±1.3"
